System: A/Vietnam/1194/04(H5N1)-NIBRG-14 highly pathogenic avian influenza virus
Assay type: cell-based

Compound | CPE inhibitory concentration | log100TCID50/ | Activity | viral titer lower than that of the control group
C=C1C(=O)O[C@@H]2[C@@H]1[C@H](OC(=O)/C(C)=C\C)[C@@]1(O)O[C@H](C[C@@H]1C)C[C@@](C)(O)[C@H]2OC(=O)CC(C)C [Compound III, 2α,5-epoxy-5,10-dihydroxy-6α-angeloyloxy-9β-(3-methyl-butanoyloxy)-gemacran-8α,12-olide] | >10 µg/mL | 0 | – | –
C=C1C(=O)O[C@@H]2[C@@H]1[C@H](OC(=O)/C(C)=C\C)[C@@]1(O)O[C@H](C[C@@H]1C)C[C@@](C)(O)[C@H]2OC(=O)C(C)C [Compound I, 2α,5-epoxy-5,10-dihydroxy-6α-angeloyloxy-9β-isobutyloxy-germacran-8α,12-olide] | >10 µg/mL | 0 | – | –
C=C1C(=O)OC2CC(C)(O)C3CCC(C)(O)C3CC12 (stereo not drawn) [Compound IV, 4β,10α-dihydroxy-guaia-8α,12-olide] | – | 5 | ∘ (key: ∘: antiviral activity defined as a decrease of 4 log units) | 4 log

Source: US20130344183A1, “NOVEL COMPOUND ISOLATED FROM […] ROXB AND USE THEREOF AS ANTIVIRAL AGENT” (priority 2011, published 2013)
